Where a name gives a salt, the structure may show the parent alone. Read-outs that look alike come from different tables or passages of the source.
Legend:
rat TAAR1 = rat TAAR1 (Rattus norvegicus (Rat), UniProt Q923Y9); assay: Radioligand binding assay on rat TAAR1; details: read-out: Ki (μM) rat
Procedure, shortened: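 Membranes from HEK293 cells stably expressing rat TAAR1, with Kd checked per batch by saturation. Competition with ³H-(S)-4-[(ethyl-phenyl-amino)-methyl]-4,5-dihydro-oxazol-2-ylamine, compounds 10 pM–10 μM in duplicate, 1 hr at 4 °C. Filtration then scintillation counting; nonspecific binding defined with 10 μM unlabeled ligand.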

mouse TAAR1 = mouse TAAR1 (Mus musculus (Mouse), UniProt Q923Y8); assay: Radioligand binding assay on mouse TAAR1; details: read-out: Ki (μM) mouse
Procedure, shortened: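 Displacement of the tritiated oxazol-2-ylamine radioligand was measured by filtration and scintillation counting after 1 h incubation at 4 °C. Test concentrations ran 10 pM–10 μM in duplicate, with 10 μM cold ligand giving nonspecific binding. The receptor source was membranes of a stable mouse TAAR1 HEK293 line.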

[1] = rat TAAR1, HEK-293 membranes, second value of cell mouse/rat
[2] = mouse TAAR1, HEK-293 membranes, first value of cell mouse/rat

Chain of rat TAAR1 (Q923Y9 whole entry): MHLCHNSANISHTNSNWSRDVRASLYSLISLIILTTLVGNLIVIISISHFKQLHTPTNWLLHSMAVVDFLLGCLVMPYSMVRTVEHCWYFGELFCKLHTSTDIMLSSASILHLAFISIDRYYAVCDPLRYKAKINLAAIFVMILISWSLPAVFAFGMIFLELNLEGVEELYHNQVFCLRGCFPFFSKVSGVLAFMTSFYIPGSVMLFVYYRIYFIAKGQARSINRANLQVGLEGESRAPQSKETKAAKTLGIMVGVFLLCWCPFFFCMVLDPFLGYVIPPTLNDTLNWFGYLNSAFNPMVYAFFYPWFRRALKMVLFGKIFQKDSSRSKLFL
Chain of mouse TAAR1 (Q923Y8 whole entry): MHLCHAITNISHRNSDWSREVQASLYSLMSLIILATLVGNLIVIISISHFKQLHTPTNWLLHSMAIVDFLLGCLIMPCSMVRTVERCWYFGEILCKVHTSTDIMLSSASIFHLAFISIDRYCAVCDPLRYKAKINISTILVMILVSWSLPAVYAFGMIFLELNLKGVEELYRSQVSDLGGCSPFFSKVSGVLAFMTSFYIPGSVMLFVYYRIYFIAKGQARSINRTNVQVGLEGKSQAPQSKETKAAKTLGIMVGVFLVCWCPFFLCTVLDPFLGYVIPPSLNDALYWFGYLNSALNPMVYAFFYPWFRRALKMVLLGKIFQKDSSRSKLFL

Row | Structure (SMILES) | Ki (rat TAAR1; [1]) | Ki (mouse TAAR1; [2]) | Ki (rat TAAR1) | Ki (mouse TAAR1)
1 | O=C(Nc1ccc(C2CNCCO2)cc1)c1ccnc(C(F)(F)F)c1 (racemic) [Example 280, (RS)—N-(4-(Morpholin-2-yl)phenyl)-2-(trifluoromethyl)isonicotinamide hydrochloride] | 0.0069 µM | 0.0172 µM | – | –
2 | O=C(Nc1ccc([C@@H]2CCCNC2)cc1)c1ccc(OCC(F)(F)F)nc1 [Example 224, (S)—N-(4-(Piperidin-3-yl)phenyl)-6-(2,2,2-trifluoroethoxy)nicotinamide hydrochloride] | – | 0.051 µM | 0.0029 µM | –
3 | O=C(Nc1ccc([C@@H]2CNCCO2)cc1)c1ccc(OCC(F)(F)F)nc1 [Example 268, (R)—N-(4-(Morpholin-2-yl)phenyl)-6-(2,2,2-trifluoroethoxy)nicotinamide hydrochloride] | – | – | 0.0024 µM | 0.002 µM
4 | CCOc1ccc(C(=O)Nc2ccc(CCC3CCCN3)cc2)cc1 (racemic) [Example 158, (RS)-4-Ethoxy-N-[4-(2-pyrrolidin-2-yl-ethyl)-phenyl]-benzamide hydrochloride] | 0.0014 µM | 0.0326 µM | – | –
5 | O=C(Nc1ccc([C@H]2CNCCO2)cc1)c1ccc(OCC(F)(F)F)nc1 [Example 269, (S)—N-(4-(Morpholin-2-yl)phenyl)-6-(2,2,2-trifluoroethoxy)nicotinamide hydrochloride] | – | – | 0.003 µM | 0.0099 µM
6 | O=C(Nc1ccc(C2CCNC2)cc1)OCCc1cc(F)ccc1F (racemic) [Example 124, (RS)-(4-Pyrrolidin-3-yl-phenyl)-carbamic acid 2-(2,5-difluoro-phenyl)-ethyl ester] | 0.0036 µM | 0.0013 µM | – | –
7 | O=C(Nc1ccc(C2CCCNC2)cc1)Nc1ccc(Cl)cn1 (racemic) [Example 83, (RS)-1-(5-Chloro-pyridin-2-yl)-3-(4-piperidin-3-yl-phenyl)-urea hydrochloride] | 0.012 µM | 0.002 µM | – | –
8 | O=C(Nc1ccc(CCC2CCCNC2)cc1)c1ncccc1F (racemic) [Example 134, (RS)-3-Fluoro-pyridine-2-carboxylic acid [4-(2-piperidin-3-yl-ethyl)-phenyl]-amide hydrochloride] | 0.106 µM | 2.06 µM | – | –
9 | O=C(Nc1ccc(C2CCNC2)cc1)Nc1cccc(Cl)c1 (racemic) [Example 8, (RS)-1-(3-Chloro-phenyl)-3-(4-pyrrolidin-3-yl-phenyl)-urea hydrochloride] | 0.0044 µM | 0.0015 µM | – | –
10 | O=C(Nc1ccc(CCC2CCNC2)cc1)c1ncccc1F (racemic) [Example 132, (RS)-3-Fluoro-pyridine-2-carboxylic acid [4-(2-pyrrolidin-3-yl-ethyl)-phenyl]-amide hydrochloride] | 0.141 µM | 9.99 µM | – | –
11 | O=C(Nc1ccc(C2CCCNC2)cc1)c1ccc(F)cn1 (racemic) [Example 180, (RS)-5-Fluoro-N-(4-(piperidin-3-yl)phenyl)picolinamide hydrochloride] | 0.0131 µM | 0.0507 µM | – | –
12 | O=C(Nc1ccc(Cl)cc1)Nc1ccc(C2CCNC2)cc1 (racemic) [Example 5, (RS)-1-(4-Chloro-phenyl)-3-(4-pyrrolidin-3-yl-phenyl)-urea hydrochloride] | 0.0027 µM | 0.0015 µM | – | –
13 | O=C(Nc1ccc(CCC2CCCN2)cc1)c1ccc(Cl)cc1 (racemic) [Example 142, (RS)-4-Chloro-N-[4-(2-pyrrolidin-2-yl-ethyl)-phenyl]-benzamide hydrochloride] | 0.0004 µM | 0.0126 µM | – | –
14 | CO[C@H]1CC[C@H](C(=O)Nc2ccc(C3CNCCO3)cc2)CC1 (mixture of isomers) [Example 255, trans-(RS)-4-Methoxy-N-(4-(morpholin-2-yl)phenyl)cyclohexanecarboxamide hydrochloride] | 0.428 µM | 5.1 µM | – | –
15 | O=C(Nc1cccc(C2CNCCO2)c1)c1ccc(Cl)cc1 (racemic) [Example 72, (RS)-4-Chloro-N-(3-morpholin-2-yl-phenyl)-benzamide hydrochloride] | 0.107 µM | 0.507 µM | – | –
16 | O=C(Nc1ccc([C@@H]2CNCCO2)cc1)c1ccc(C(F)(F)F)nc1 [Example 283, (R)—N-(4-(Morpholin-2-yl)phenyl)-6-(trifluoromethyl)nicotinamide hydrochloride] | – | 0.006 µM | 0.0059 µM | –
17 | O=C(Nc1ccc(C2CCNC2)cc1)OC(c1ccc(Cl)cc1)C(F)(F)F (racemic) [Example 130, (RS)-(4-Pyrrolidin-3-yl-phenyl)-carbamic acid (RS)-1-(4-chloro-phenyl)-2,2,2-trifluoro-ethyl ester] | 0.0169 µM | 0.0017 µM | – | –
18 | O=C(Nc1ccc(C2CCNC2)cc1)c1ccc(C(F)(F)F)cc1 (racemic) [Example 18, (RS)—N-(4-Pyrrolidin-3-yl-phenyl)-4-trifluoromethyl-benzamide hydrochloride] | 0.0036 µM | 0.0011 µM | – | –
19 | O=C(Nc1ccc(Cl)cc1)Nc1ccc(CCC2CCCNC2)cc1 (racemic) [Example 119, (RS)-1-(4-Chloro-phenyl)-3-[4-(2-piperidin-3-yl-ethyl)-phenyl]-urea hydrochloride] | 0.0018 µM | 0.0365 µM | – | –

Row | Structure (SMILES) | Ki (rat TAAR1; [1]) | Ki (mouse TAAR1; [2]) | Ki (rat TAAR1) | Ki (mouse TAAR1)
20 | O=C(Nc1ccc([C@@H]2CCCNC2)cc1)c1ccc(C(F)(F)F)nc1 [Example 242, (S)—N-(4-(Piperidin-3-yl)phenyl)-6-(trifluoromethyl)nicotinamide hydrochloride] | – | – | 0.0089 µM | 0.037 µM
21 | Cc1ccc(C(=O)Nc2ccc([C@@H]3CCCNC3)cc2)cn1 [Example 243, (S)-6-Methyl-N-(4-(piperidin-3-yl)phenyl)nicotinamide hydrochloride] | 0.0062 µM | 2.12 µM | – | –
22 | O=C(Nc1ccc(C2CCNC2)cc1)Nc1ccc(Cl)nc1 (racemic) [Example 26, (RS)-1-(6-Chloro-pyridin-3-yl)-3-(4-pyrrolidin-3-yl-phenyl)-urea hydrochloride] | 0.0279 µM | 0.0112 µM | – | –
23 | CO[C@H]1CC[C@@H](C(=O)Nc2ccc(C3CNCCO3)cc2)CC1 (mixture of isomers) [Example 254, cis-(RS)-4-Methoxy-N-(4-(morpholin-2-yl)phenyl)cyclohexanecarboxamide hydrochloride] | 0.726 µM | 2.82 µM | – | –
24 | O=C(Nc1ccc(C2CNCCO2)cc1)c1ccc(O)cc1 (racemic) [Example 199, (RS)-4-Hydroxy-N-(4-(morpholin-2-yl)phenyl)benzamide hydrochloride] | 0.238 µM | 1.16 µM | – | –
25 | O=C(NCc1ccc([C@H]2CNCCO2)cc1)c1cccc(Cl)c1 [Example 318, (S)-3-Chloro-N-(4-(morpholin-2-yl)benzyl)benzamide hydrochloride] | 0.0312 µM | 12900 µM | – | –
26 | O=C(Nc1ccc(C2CCCNC2)cc1)c1ccc(OCC(F)(F)F)cn1 (racemic) [Example 191, (RS)—N-(4-(Piperidin-3-yl)phenyl)-5-(2,2,2-trifluoroethoxy)picolinamide hydrochloride] | 0.0074 µM | 0.011 µM | – | –
27 | Cc1ccc(C(=O)Nc2ccc([C@H]3CNCCO3)cc2)cc1 [Example 196, (S)-4-Methyl-N-(4-(morpholin-2-yl)phenyl)benzamide hydrochloride] | 0.001 µM | 0.0524 µM | – | –
28 | O=C(Nc1ccc(C2CNCCO2)cc1)c1ccc(Cl)nc1 (racemic) [Example 193, (RS)-6-chloro-N-(4-(morpholin-2-yl)phenyl)nicotinamide hydrochloride] | – | 0.0406 µM | 0.0034 µM | –
29 | N#Cc1ccc(C(=O)Nc2ccc(C3CCNC3)cc2)nc1 (racemic) [Example 165, (RS)-5-Cyano-N-(4-(pyrrolidin-3-yl)phenyl)picolinamide hydrochloride] | 0.0411 µM | 0.126 µM | – | –
30 | O=C(Nc1ccc([C@@H]2CCCNC2)cc1)c1ccc(Cl)cc1 [Example 112, 4-Chloro-N—((S)-4-piperidin-3-yl-phenyl)-benzamide] | 0.0018 µM | 0.211 µM | – | –
31 | CCOc1ccc(C(=O)Nc2ccc(C3CNCCO3)cc2)cn1 (racemic) [Example 245, (RS)-6-Ethoxy-N-(4-(morpholin-2-yl)phenyl)nicotinamide hydrochloride] | 0.0063 µM | 0.0649 µM | – | –
32 | O=C(Nc1ccc(C2CCNC2)cc1)c1cccc(Cl)c1 (racemic) [Example 20, (RS)-3-Chloro-N-(4-pyrrolidin-3-yl-phenyl)-benzamide hydrochloride] | 0.0077 µM | 0.0005 µM | – | –
33 | O=C(Nc1ccc([C@H]2CCCNC2)cc1)c1ccc(Cl)cc1 [Example 113, 4-Chloro-N—((R)-4-piperidin-3-yl-phenyl)-benzamide] | 0.004 µM | 0.0095 µM | – | –
34 | Cc1cccc(C(=O)Nc2ccc([C@@H]3CCCNC3)cc2)c1 [Example 253, (S)-3-Methyl-N-(4-(piperidin-3-yl)phenyl)benzamide] | 0.0035 µM | – | – | 0.36 µM
35 | COc1ccc(C(=O)Nc2ccc(C3CCNC3)cc2)c(F)c1 (racemic) [Example 88, (RS)-2-Fluoro-4-methoxy-N-(4-pyrrolidin-3-yl-phenyl)-benzamide hydrochloride] | 0.102 µM | 0.0052 µM | – | –
36 | Cn1cc(-c2nc(C(=O)Nc3ccc(C4CNCCO4)cc3)cs2)cn1 (racemic) [Example 296, (RS)-2-(1-Methyl-1H-pyrazol-4-yl)-N-(4-(morpholin-2-yl)phenyl)thiazole-4-carboxamide hydrochloride] | 0.0847 µM | 0.0645 µM | – | –
37 | O=C(Nc1ccc(C2CCNC2)cc1)c1ccc(C(F)(F)F)cn1 (racemic) [Example 139, (RS)-5-Trifluoromethyl-pyridine-2-carboxylic acid (4-pyrrolidin-3-yl-phenyl)-amide hydrochloride] | 0.0051 µM | 0.0158 µM | – | –

Reference: patent US9452980B2, “Substituted benzamides” (Hoffmann-La Roche Inc., priority 2009, dated 2016)
